Reference: patent US9492471B2, “Methods of treating a disease or disorder associated with Bruton'S Tyrosine Kinase” (Celgene Avilomics Research, Inc., priority 2013, dated 2016)
Like-named read-outs stand apart in the source and are kept apart here.

Columns and labels:
Assay in all cases: HotSpot kinase profiling
Format in all cases: biochemical
ROCK1 = molecular target: T1, ROCK1 (Homo sapiens, UniProt Q13464)
T1 construct: purchased Reaction Biology Corp
In short: (§1)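 Radiometric kinase assay with P81 filter capture; each kinase was added to fresh substrate plus cofactors in reaction buffer and incubated 2 h at room temperature. Unreacted phosphate was washed off with 0.1% phosphoric acid before detection; percent inhibition is relative to DMSO control, averaged over replicates.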

ARAF = molecular target: T2, ARAF (Homo sapiens, UniProt P10398)
T2 construct: purchased Reaction Biology Corp
T2 sequence (P10398 1-606): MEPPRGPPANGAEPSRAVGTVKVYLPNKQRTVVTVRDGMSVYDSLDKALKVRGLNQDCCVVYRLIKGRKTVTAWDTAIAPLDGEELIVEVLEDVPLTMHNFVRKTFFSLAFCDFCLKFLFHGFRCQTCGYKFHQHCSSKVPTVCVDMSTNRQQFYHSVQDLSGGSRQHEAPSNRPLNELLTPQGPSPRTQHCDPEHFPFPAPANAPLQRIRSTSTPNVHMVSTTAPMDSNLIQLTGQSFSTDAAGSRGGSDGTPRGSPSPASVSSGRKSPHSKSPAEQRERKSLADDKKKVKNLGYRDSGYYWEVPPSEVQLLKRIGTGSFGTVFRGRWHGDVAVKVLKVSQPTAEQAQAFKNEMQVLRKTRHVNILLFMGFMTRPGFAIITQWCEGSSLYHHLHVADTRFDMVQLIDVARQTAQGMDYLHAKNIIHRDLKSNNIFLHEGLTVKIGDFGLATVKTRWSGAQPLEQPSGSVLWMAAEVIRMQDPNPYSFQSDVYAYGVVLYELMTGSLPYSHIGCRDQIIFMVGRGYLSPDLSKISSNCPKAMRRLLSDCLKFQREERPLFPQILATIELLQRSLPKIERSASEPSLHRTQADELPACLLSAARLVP
In short: as §1

MARK1 = molecular target: T3, MARK1 (Homo sapiens, UniProt Q9P0L2)
T3 construct: purchased Reaction Biology Corp
T3 sequence (Q9P0L2 whole entry): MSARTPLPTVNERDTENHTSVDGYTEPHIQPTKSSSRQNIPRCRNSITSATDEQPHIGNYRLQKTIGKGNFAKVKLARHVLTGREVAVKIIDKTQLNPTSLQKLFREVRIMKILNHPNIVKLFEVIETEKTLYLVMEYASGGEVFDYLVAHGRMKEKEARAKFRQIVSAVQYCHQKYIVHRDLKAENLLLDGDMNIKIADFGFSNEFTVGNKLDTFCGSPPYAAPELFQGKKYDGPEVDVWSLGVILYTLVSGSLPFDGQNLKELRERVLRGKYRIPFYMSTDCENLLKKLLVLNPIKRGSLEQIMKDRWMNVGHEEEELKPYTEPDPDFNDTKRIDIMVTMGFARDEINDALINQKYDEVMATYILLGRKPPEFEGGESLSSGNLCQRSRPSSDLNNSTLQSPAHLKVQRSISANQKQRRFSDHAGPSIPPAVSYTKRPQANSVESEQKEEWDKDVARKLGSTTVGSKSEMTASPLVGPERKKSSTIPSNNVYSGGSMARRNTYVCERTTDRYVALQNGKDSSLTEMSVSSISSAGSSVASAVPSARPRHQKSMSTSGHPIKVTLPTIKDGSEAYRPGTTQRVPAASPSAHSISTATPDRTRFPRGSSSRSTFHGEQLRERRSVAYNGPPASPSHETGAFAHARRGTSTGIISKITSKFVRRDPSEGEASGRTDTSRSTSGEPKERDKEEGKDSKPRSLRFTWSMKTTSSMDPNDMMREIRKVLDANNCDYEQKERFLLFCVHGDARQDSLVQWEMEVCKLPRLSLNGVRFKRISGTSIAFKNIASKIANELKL
In short: as §1

MYLK3 = molecular target: T4, MYLK3 (Homo sapiens, UniProt Q32MK0)
T4 construct: purchased Reaction Biology Corp
T4 sequence (Q32MK0 1-819): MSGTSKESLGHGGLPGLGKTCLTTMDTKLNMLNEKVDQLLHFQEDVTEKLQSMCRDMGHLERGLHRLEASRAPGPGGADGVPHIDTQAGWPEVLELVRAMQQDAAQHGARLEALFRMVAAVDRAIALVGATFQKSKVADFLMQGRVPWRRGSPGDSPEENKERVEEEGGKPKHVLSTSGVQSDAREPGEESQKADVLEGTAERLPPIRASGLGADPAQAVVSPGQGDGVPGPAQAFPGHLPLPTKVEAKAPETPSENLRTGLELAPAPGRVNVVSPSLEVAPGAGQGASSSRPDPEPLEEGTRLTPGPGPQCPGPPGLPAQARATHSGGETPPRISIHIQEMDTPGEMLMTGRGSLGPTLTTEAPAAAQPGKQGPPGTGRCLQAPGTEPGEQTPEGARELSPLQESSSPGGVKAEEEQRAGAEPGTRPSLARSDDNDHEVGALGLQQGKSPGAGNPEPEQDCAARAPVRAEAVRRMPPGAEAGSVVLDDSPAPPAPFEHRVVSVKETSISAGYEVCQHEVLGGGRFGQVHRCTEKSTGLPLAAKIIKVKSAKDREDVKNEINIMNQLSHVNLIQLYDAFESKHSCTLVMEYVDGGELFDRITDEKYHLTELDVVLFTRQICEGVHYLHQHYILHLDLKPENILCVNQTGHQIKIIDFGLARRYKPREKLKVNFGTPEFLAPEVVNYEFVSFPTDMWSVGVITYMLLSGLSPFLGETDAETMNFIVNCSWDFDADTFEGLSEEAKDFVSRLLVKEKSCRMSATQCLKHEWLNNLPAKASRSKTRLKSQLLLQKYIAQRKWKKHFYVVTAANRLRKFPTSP
In short: as §1

LRRK2 = molecular target: T5, LRRK2 (Homo sapiens, UniProt Q5S007)
T5 construct: purchased Reaction Biology Corp
T5 sequence (Q5S007 whole entry): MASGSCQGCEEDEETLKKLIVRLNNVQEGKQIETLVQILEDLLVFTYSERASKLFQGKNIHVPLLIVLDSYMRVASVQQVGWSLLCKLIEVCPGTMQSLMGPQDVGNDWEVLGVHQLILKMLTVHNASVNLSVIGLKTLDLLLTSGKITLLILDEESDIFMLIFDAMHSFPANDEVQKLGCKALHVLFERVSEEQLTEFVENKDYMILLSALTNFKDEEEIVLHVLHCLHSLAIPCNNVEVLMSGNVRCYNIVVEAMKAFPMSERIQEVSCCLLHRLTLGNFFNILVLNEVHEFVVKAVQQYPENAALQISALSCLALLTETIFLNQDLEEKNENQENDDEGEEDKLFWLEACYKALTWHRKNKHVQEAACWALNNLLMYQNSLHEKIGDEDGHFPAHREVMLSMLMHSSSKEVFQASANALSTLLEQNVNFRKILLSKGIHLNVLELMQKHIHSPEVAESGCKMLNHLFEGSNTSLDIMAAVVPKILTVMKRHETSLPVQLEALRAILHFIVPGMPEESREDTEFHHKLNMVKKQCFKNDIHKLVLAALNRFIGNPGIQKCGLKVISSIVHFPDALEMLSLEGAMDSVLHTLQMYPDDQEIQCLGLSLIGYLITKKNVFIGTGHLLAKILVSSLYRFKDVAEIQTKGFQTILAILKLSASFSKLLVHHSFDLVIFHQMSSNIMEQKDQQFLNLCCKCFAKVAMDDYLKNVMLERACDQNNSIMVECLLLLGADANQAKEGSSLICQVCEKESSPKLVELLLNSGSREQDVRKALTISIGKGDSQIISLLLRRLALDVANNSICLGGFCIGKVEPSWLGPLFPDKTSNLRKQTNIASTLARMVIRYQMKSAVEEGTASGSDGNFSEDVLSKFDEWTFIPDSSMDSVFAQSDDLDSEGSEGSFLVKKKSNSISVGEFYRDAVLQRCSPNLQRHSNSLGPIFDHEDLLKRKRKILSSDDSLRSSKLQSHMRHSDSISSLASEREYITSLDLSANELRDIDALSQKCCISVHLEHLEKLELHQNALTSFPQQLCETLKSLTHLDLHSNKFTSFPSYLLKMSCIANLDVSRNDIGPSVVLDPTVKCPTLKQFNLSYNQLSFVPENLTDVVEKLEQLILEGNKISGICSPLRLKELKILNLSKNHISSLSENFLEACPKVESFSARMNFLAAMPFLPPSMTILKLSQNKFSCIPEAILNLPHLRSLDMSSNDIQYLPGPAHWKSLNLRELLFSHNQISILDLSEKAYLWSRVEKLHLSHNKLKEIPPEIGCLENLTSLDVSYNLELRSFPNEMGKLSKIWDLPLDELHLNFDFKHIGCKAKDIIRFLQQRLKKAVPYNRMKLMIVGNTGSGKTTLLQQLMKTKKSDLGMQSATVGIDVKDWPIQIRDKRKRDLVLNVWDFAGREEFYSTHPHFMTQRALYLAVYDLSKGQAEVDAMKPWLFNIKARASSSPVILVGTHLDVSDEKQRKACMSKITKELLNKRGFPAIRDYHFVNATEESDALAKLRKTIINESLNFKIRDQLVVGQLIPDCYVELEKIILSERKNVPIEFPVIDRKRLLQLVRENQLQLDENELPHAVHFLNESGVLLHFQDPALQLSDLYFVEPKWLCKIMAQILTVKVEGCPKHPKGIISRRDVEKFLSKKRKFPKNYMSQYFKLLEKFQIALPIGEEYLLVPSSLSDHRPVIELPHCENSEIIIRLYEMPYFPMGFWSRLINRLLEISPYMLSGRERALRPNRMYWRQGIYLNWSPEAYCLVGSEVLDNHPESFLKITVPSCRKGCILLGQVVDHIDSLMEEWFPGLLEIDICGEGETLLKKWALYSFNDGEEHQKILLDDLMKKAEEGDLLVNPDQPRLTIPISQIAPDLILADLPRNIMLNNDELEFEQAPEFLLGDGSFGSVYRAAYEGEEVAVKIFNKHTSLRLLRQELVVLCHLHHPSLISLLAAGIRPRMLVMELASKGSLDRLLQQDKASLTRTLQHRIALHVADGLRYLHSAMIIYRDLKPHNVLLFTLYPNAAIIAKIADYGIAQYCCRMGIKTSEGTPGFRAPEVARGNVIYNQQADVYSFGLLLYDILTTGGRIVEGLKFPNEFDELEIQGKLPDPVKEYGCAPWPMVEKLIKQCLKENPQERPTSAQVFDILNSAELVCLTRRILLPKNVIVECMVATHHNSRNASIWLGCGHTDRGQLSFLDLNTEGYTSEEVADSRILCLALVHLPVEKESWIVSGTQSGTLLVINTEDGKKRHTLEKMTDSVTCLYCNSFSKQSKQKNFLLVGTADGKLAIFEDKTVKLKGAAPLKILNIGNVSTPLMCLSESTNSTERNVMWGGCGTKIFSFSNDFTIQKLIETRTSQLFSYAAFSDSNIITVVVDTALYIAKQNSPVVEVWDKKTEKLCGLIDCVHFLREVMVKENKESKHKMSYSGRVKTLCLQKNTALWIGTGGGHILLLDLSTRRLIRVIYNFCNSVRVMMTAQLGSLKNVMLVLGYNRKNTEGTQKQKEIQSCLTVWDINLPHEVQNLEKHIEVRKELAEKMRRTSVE
In short: as §1

[1] = read-out: % Enzyme Activity (relative to DMSO controls) Run 1
[2] = read-out: % Enzyme Activity (relative to DMSO controls) Run 2

T1 sequence (Q13464 whole entry): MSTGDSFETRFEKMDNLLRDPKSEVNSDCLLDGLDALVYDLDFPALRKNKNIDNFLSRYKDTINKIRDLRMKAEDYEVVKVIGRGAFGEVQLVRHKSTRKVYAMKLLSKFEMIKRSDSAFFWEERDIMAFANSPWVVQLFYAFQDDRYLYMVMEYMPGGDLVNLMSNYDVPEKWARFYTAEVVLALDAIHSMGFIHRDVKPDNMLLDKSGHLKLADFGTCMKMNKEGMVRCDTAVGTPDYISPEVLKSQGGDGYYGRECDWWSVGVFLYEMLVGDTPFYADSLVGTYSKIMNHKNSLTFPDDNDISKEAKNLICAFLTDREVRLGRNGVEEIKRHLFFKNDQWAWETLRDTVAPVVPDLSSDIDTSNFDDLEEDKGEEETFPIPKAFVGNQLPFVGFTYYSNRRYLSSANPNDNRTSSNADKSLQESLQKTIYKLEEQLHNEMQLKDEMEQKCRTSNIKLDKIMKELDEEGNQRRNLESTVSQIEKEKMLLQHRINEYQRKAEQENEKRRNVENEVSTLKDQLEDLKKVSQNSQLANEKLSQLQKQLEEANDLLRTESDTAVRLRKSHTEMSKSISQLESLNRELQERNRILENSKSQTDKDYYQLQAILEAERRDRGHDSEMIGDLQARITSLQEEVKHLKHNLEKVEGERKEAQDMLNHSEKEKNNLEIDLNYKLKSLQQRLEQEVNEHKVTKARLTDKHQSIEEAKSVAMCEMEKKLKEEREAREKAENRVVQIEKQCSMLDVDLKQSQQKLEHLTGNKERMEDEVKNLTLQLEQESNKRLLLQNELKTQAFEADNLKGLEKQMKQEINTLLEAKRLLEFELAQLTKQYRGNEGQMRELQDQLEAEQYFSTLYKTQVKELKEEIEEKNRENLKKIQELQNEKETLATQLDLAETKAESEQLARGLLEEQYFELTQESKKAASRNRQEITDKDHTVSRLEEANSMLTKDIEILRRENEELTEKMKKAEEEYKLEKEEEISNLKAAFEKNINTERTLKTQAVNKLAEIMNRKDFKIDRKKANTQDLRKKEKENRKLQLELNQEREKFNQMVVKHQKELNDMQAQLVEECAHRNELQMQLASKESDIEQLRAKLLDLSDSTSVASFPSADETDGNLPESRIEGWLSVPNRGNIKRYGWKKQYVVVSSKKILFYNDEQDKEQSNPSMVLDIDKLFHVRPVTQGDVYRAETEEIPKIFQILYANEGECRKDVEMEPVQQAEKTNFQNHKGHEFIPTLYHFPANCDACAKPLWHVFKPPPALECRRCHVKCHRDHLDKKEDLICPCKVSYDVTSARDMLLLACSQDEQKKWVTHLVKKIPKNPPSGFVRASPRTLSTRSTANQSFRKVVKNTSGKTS

C=CC(=O)Nc1cccc(Nc2nc(Nc3ccc(OCCOC)c(F)c3)ncc2F)c1 [Compound 2] was tested. Which inhibition at 3 µM (ROCK1) did it give?
Its inhibition at 3 µM is -6.39%.

And the remaining activity at 3 µM (ROCK1; [1])?
Its remaining activity at 3 µM is 108%.

What about the remaining activity at 3 µM (ROCK1; [2]) of the same compound?
The remaining activity at 3 µM was 105%.

And the inhibition at 3 µM (ARAF)?
The inhibition at 3 µM was -1.47%.

And the remaining activity at 3 µM (ARAF; [1])?
Its remaining activity at 3 µM is 103%.

What about the remaining activity at 3 µM (ARAF; [2]) of the same compound?
Its remaining activity at 3 µM is 100%.

And the inhibition at 3 µM (MARK1)?
The inhibition at 3 µM was 5.86%.

And the remaining activity at 3 µM (MARK1; [1])?
The remaining activity at 3 µM was 90.9%.

And the remaining activity at 3 µM (MARK1; [2])?
The remaining activity at 3 µM was 97.3%.

What about the inhibition at 3 µM (MYLK3) of the same compound?
The inhibition at 3 µM was -15%.

What about the remaining activity at 3 µM (MYLK3; [1]) of the same compound?
Its remaining activity at 3 µM is 113%.

And the remaining activity at 3 µM (MYLK3; [2])?
The remaining activity at 3 µM was 116%.

And the inhibition at 3 µM (LRRK2)?
The inhibition at 3 µM was 65.9%.

And the remaining activity at 3 µM (LRRK2; [1])?
The remaining activity at 3 µM was 33%.

What about the remaining activity at 3 µM (LRRK2; [2]) of the same compound?
The remaining activity at 3 µM was 35.1%.
